Measurements from patent publication US20220135622A1, “ANTIBACTERIAL PEPTIDES AND METHODS OF USE” (priority 2019, published 2022).
≈ marks a conversion by molar mass, not a printed value. Square brackets hold non-standard residues; d marks the D form. Peptide text beside a SMILES is read from it. Bip = N[C@@H](Cc1ccc(-c2ccccc2)cc1)C(=O)O; hhPhe = N[C@@H](CCCc1ccccc1)C(=O)O; hPhe = N[C@@H](CCc1ccccc1)C(=O)O; Ahp(2) = CCCCC[C@H](N)C(=O)O; Pip = O=C(O)[C@@H]1CCCCN1; Dap = NC[C@H](N)C(=O)O; Aib = CC(C)(N)C(=O)O

System: E. coli BW25113
Type: cell-based, Escherichia coli
Settings: BW25113
Experimental: Bacterial growth conditions. LB or Mueller Hinton II cation-adjusted broth (MHB II, BBL 212322) was prepared according to manufacturer's instructions and supplemented with arabinose at 0.02% for overnight growth or at indicated concentrations in the description of the figures. Bacterial cultures were grown at 37° C. When appropriate, media was supplemented with kanamycin (50 μg/mL), carbenicillin (50 μg/mL), chloramphenicol (12.5 or 25 μg/mL), hygromycin (200 μg/mL), and/or gentamicin (10 μg/mL).
Peptide sensitivity and MIC assays. Lyophilized peptides (Smartox Biotechnology, CPC Scientific. ABclonal) were solubilized to 10 mM in Tris buffer, pH 8, prior to making a 2-fold dilution series in MHBII cation adjusted broth with highest final assay concentration of 400-800 μM. Bacteria were grown to log phase and added to final OD600˜0.001. The final EDTA concentration was 0.5 mM for E. coli strains and 0.125 mM for USA300. The final volume of 10 μL/well in a 384 well black, clear bottom plate (Corning) was spun <1 min at <250×g and then incubated at 37° C. After 4 h, an equal volume (10 μL) of BacTiter-Glo™ (Promega) was added to each well and luminescence was read after 5 min on an EnVision plate reader (PerkinElmer). To measure the minimal inhibitory concentrations (MICs), bacteria from fresh overnight plates or log phase cultures were diluted with or without EDTA and peptides as described above to final OD600˜0.0002. Plates were incubated at 37° C. for 20 h before measuring OD600 with an EnVision plate reader.

First: CSCC[C@H](NC(=O)[C@H](CN)NC(=O)[C@H](Cc1ccc(O)cc1)NC(C)=O)C(=O)N1CCC[C@H]1C(=O)N[C@@H](Cc1ccccc1)C(=O)N[C@@H](CCCNC(=N)N)C(=O)N[C@@H](CCCNC(=N)N)C(=O)N[C@@H](Cc1ccccc1)C(=O)N[C@@H](CC(C)C)C(=O)N[C@@H](CCC(=O)O)C(=O)N[C@@H](CCCCN)C(=O)N[C@@H](Cc1c[nH]c2ccccc12)C(=O)NCC(=O)N[C@@H](CC(C)C)C(=O)N[C@@H](CC(C)C)C(=O)N[C@@H](CCCNC(=N)N)C(N)=O [compound 102] (Ac-Y[Dap]MPFRRFLEKWGLLR-NH2)
Second: CSCC[C@H](NC(=O)[C@@H]1CCCN1C(=O)[C@H](Cc1ccc(O)cc1)NC(C)=O)C(=O)N[C@@H](CCCNC(=N)N)C(=O)N[C@@H](Cc1ccccc1)C(=O)N[C@@H](CN)C(=O)N[C@@H](CCCNC(=N)N)C(=O)N[C@@H](Cc1ccccc1)C(=O)N[C@@H](CC(C)C)C(=O)N[C@@H](CCC(=O)O)C(=O)N[C@@H](CCCCN)C(=O)N[C@@H](Cc1c[nH]c2ccccc12)C(=O)NCC(=O)N[C@@H](CC(C)C)C(=O)N[C@@H](CC(C)C)C(=O)N[C@@H](CCCNC(=N)N)C(N)=O [compound 105] (Ac-YPMRF[Dap]RFLEKWGLLR-NH2)
The “MIC E. coli BW25113” value of the first is 2-fold lower: 25.0 µM (≈ 53.5 µg/mL) for the first, 50 µM (≈ 107 µg/mL) for the second.

First: CSCC[C@H](NC(=O)[C@H](CN)NC(=O)[C@H](CCSC)NC(=O)[C@@H]1CCCN1C(=O)[C@H](CCCNC(=N)N)NC(C)=O)C(=O)N[C@@H](CCCNC(=N)N)C(=O)N[C@@H](CCCNC(=N)N)C(=O)N[C@@H](Cc1ccc(-c2ccccc2)cc1)C(=O)N[C@@H](CC(C)C)C(=O)N[C@@H](C)C(=O)N[C@@H](CCCCN)C(=O)N[C@@H](Cc1c[nH]c2ccccc12)C(=O)NCC(=O)N[C@@H](CC(C)C)C(N)=O [compound 217] (Ac-RPM[Dap]MRR[Bip]LAKWGL-NH2)
Second: CSCC[C@H](NC(=O)[C@H](CN)NC(=O)[C@H](CCSC)NC(=O)[C@@H]1CCCN1C(=O)[C@H](CCCNC(=N)N)NC(C)=O)C(=O)N[C@@H](CCCNC(=N)N)C(=O)N[C@@H](CCCNC(=N)N)C(=O)N[C@@H](Cc1ccc(-c2ccccc2)cc1)C(=O)N[C@@H](CC(C)C)C(=O)N[C@@H](C)C(=O)N[C@@H](CCCCN)C(=O)N[C@@H](CCCNC(=N)N)C(=O)NCC(=O)N[C@@H](CC(C)C)C(N)=O [compound 219] (Ac-RPM[Dap]MRR[Bip]LAKRGL-NH2)
The “MIC E. coli BW25113” value of the first is 2-fold lower: 12.5 µM (≈ 23.3 µg/mL) for the first, 25.0 µM (≈ 45.9 µg/mL) for the second.

First: CSCC[C@H](NC(=O)[C@@H]1CCCN1C(=O)[C@H](CCCNC(=N)N)NC(C)=O)C(=O)N[C@H](C(=O)NC(C)(C)C(=O)N[C@@H](CCCNC(=N)N)C(=O)N[C@@H](CCCNC(=N)N)C(=O)N[C@@H](Cc1c[nH]c2ccccc12)C(=O)N[C@@H](CC(C)C)C(=O)N[C@@H](C)C(=O)N[C@@H](CCCCN)C(=O)N[C@@H](CCCNC(=N)N)C(=O)NCC(=O)N[C@@H](CC(C)C)C(N)=O)[C@@H](C)O [compound 220] (Ac-RPMT[Aib]RRWLAKRGL-NH2)
Second: CSCC[C@H](NC(=O)[C@@H]1CCCCN1C(=O)[C@H](CCCNC(=N)N)NC(C)=O)C(=O)N[C@H](C(=O)N[C@@H](C)C(=O)N[C@@H](CCCNC(=N)N)C(=O)N[C@@H](CCCNC(=N)N)C(=O)N[C@@H](Cc1c[nH]c2ccccc12)C(=O)N[C@@H](CC(C)C)C(=O)N[C@@H](C)C(=O)N[C@@H](CCCCN)C(=O)N[C@@H](CCCNC(=N)N)C(=O)NCC(=O)N[C@@H](CC(C)C)C(N)=O)[C@@H](C)O [compound 221] (Ac-R[Pip]MTARRWLAKRGL-NH2)
The “MIC E. coli BW25113” value of the first is 2-fold lower: 100.0 µM (≈ 177 µg/mL) for the first, 200.0 µM (≈ 353 µg/mL) for the second.

First: CC(=O)N[C@@H](CCCNC(=N)N)C(=O)N1CCC[C@H]1C(=O)N[C@@H](CCc1ccccc1)C(=O)N[C@H](C(=O)N[C@@H](C)C(=O)N[C@@H](CCCNC(=N)N)C(=O)N[C@@H](CCCNC(=N)N)C(=O)N[C@@H](Cc1c[nH]c2ccccc12)C(=O)N[C@@H](CC(C)C)C(=O)N[C@@H](C)C(=O)N[C@@H](CCCCN)C(=O)N[C@@H](CCCNC(=N)N)C(=O)NCC(=O)N[C@@H](CC(C)C)C(N)=O)[C@@H](C)O [compound 222] (Ac-RP[hPhe]TARRWLAKRGL-NH2)
Second: CSCC[C@H](NC(=O)[C@H](CN)NC(=O)[C@H](CCCc1ccccc1)NC(=O)[C@@H]1CCCN1C(=O)[C@H](CCCNC(=N)N)NC(C)=O)C(=O)N[C@@H](CCCNC(=N)N)C(=O)N[C@@H](CCCNC(=N)N)C(=O)N[C@@H](Cc1c[nH]c2ccccc12)C(=O)N[C@@H](CC(C)C)C(=O)N[C@@H](C)C(=O)N[C@@H](CCCCN)C(=O)N[C@@H](CCCNC(=N)N)C(=O)NCC(=O)N[C@@H](CC(C)C)C(N)=O [compound 227] (Ac-RP[hhPhe][Dap]MRRWLAKRGL-NH2)
The “MIC E. coli BW25113” value of the first is 4-fold lower: 12.5 µM (≈ 22.3 µg/mL) for the first, 50.0 µM (≈ 92.1 µg/mL) for the second.

CSCC[C@H](NC(=O)[C@H](CN)NC(=O)[C@H](CCCc1ccccc1)NC(=O)[C@@H]1CCCN1C(=O)[C@H](CCCNC(=N)N)NC(C)=O)C(=O)N[C@@H](CCCNC(=N)N)C(=O)N[C@@H](CCCNC(=N)N)C(=O)N[C@@H](Cc1ccc(-c2ccccc2)cc1)C(=O)N[C@@H](CC(C)C)C(=O)N[C@@H](C)C(=O)N[C@@H](CCCCN)C(=O)N[C@@H](CCCNC(=N)N)C(=O)NCC(=O)N[C@@H](CC(C)C)C(N)=O [compound 226] (Ac-RP[hhPhe][Dap]MRR[Bip]LAKRGL-NH2) was tested, and the “MIC E. coli BW25113” value was 25.0 µM (≈ 47 µg/mL).

In the case of CSCC[C@H](NC(=O)[C@H](CN)NC(=O)[C@@H]1CCCN1C(=O)[C@H](Cc1ccc(O)cc1)NC(C)=O)C(=O)N[C@@H](Cc1ccccc1)C(=O)N[C@@H](CCCNC(=N)N)C(=O)N[C@@H](CCCNC(=N)N)C(=O)N[C@@H](Cc1ccccc1)C(=O)N[C@@H](CC(C)C)C(=O)N[C@@H](CCC(=O)O)C(=O)N[C@@H](CCCCN)C(=O)N[C@@H](Cc1c[nH]c2ccccc12)C(=O)NCC(=O)N[C@@H](CC(C)C)C(=O)N[C@@H](CC(C)C)C(=O)N[C@@H](CCCNC(=N)N)C(N)=O [compound 103] (Ac-YP[Dap]MFRRFLEKWGLLR-NH2), the “MIC E. coli BW25113” value is reported as <12.5 µM.

Same assay, conditions: Table 8

CSCC[C@H](NC(=O)[C@@H]1CCCN1C(=O)[C@H](Cc1ccc(O)cc1)NC(C)=O)C(=O)N[C@@H](Cc1ccccc1)C(=O)N[C@@H](CN)C(=O)N[C@@H](CCCNC(=N)N)C(=O)N[C@@H](CCCNC(=N)N)C(=O)N[C@@H](Cc1ccccc1)C(=O)N[C@@H](CC(C)C)C(=O)N[C@@H](CCC(=O)O)C(=O)N[C@@H](CCCCN)C(=O)N[C@@H](Cc1c[nH]c2ccccc12)C(=O)NCC(=O)N[C@@H](CC(C)C)C(=O)N[C@@H](CC(C)C)C(=O)N[C@@H](CCCNC(=N)N)C(N)=O [compound 104] (Ac-YPMF[Dap]RRFLEKWGLLR-NH2) and CSCC[C@H](NC(=O)[C@H](CN)NC(=O)[C@H](CCSC)NC(=O)[C@@H]1CCCN1C(=O)[C@H](CCCNC(=N)N)NC(C)=O)C(=O)N[C@@H](CCCNC(=N)N)C(=O)N[C@@H](CCCNC(=N)N)C(=O)N[C@@H](Cc1ccc(-c2ccccc2)cc1)C(=O)N[C@@H](CC(C)C)C(=O)N[C@@H](CCC(=O)O)C(=O)N[C@@H](CCCCN)C(=O)N[C@@H](CCCNC(=N)N)C(=O)NCC(=O)N[C@@H](CC(C)C)C(N)=O [compound 218] (Ac-RPM[Dap]MRR[Bip]LEKRGL-NH2) are the same in “MIC E. coli BW25113” value: 200 µM (≈ 428 µg/mL) for the first, 200.0 µM (≈ 379 µg/mL) for the second.

Compared with CCCCC[C@H](NC(=O)[C@H](CCCCN)NC(=O)[C@H](C)NC(=O)[C@H](CC(C)C)NC(=O)[C@H](Cc1c[nH]c2ccccc12)NC(=O)[C@H](CCCNC(=N)N)NC(=O)[C@H](CCCNC(=N)N)NC(=O)[C@H](C)NC(=O)[C@@H](NC(=O)[C@H](CCSC)NC(=O)[C@@H]1CCCN1C(=O)[C@H](CCCNC(=N)N)NC(C)=O)[C@@H](C)O)C(=O)NCC(=O)N[C@@H](CC(C)C)C(N)=O [compound 224] (Ac-RPMTARRWLAK[Ahp(2)]GL-NH2), Ac-RPMTWRRWLEKHGL-NH2 [compound 204] is 2-fold higher in “MIC E. coli BW25113” value: 100.0 µM (≈ 172 µg/mL) for the first, 200.0 µM for the second.
